Our source for the inhibition values is patent publication US20220409643A1, “ROR Gamma T Inhibitors and Topical Uses Thereof” (Dermira, inc., priority 2019, published 2022).

Each structure is given as a SMILES string.

The first experiment relates to IL17A. Nature of the experiment: skin Resident Immune Cell Assay (sRICA), Th17 model, IL17A protein in media. In kind it is cell-based. To be noted: 100 uM solution in 1% DMSO/OD applied topically to human skin; media collected 24 hours after Th17 activation. As to the method: A skin Resident Immune Cell Assay (sRICA) was used to test compounds for reduction of IL-17A protein upregulation in the Th17 sRICA model. In this model, human surgical skin waste was cultured in a transwell system, with the dermis in contact with cell culture media and the stratum corneum exposed to air. To perform the assay, each human skin sample was defatted and dermatomed to 750μm. Next, 8 mm punch biopsies were obtained and placed in a membrane transwell. The transwells were inserted into culture wells with complete media, and a cocktail of cytokines and antibodies were added to promote skin resident immune cell polarization.
RORγt inhibitors were prepared as a 100 uM solution in 1% DMSO/OD. […] of the prepared topical solution was applied to sRICA wells prepared for topical drug evaluation. Drugs were allowed to penetrate the skin overnight, for up to 24 hours prior to Th17 activation. Media was collected 24 hours after Th17 activation for IL17A protein assessment. IL17A protein was evaluated using the Quanterix IL17A detection kit on the SiMoA platform (via CRO Translational Biosciences). There was significant upregulation of IL17A with Th17 activation. Each study was normalized to the % max of IL17A production (i.e. the average IL17A concentration of Th17 activated skin alone) was set to 100%, all other values (untreated no activation and treated samples) were obtained as a percentage of this. […]
By inhibition is commonly meant the drop in the measured response relative to a control, in per cent. Take `CCOc1ccc2c(c1)CCN(C(=O)Cc1cc(O)no1)[C@H]2C(=O)Nc1cc(F)c2c(c1)CCC2(C)C` [(1R)-6-ethoxy-N-(7-fluoro-1,1-dimethyl-2,3-dihydro-1H-inden-5-yl)-2-((3-hydroxy-1,2-oxazol-5-yl)acetyl)-1,2,3,4-tetrahydroisoquinoline-1-carboxamide]: the inhibition at 100 µM was 67.9%. As to `COCC(C)(C)c1c(F)cc(NC(=O)[C@H]2c3ccc(OC)cc3CCN2C(=O)c2cc(O)no2)cc1F` [(1R)-N-(3,5-difluoro-4-(1-methoxy-2-methylpropan-2-yl)phenyl)-2-((3-hydroxy-1,2-oxazol-5-yl)carbonyl)-6-methoxy-1,2,3,4-tetrahydroisoquinoline-1-carboxamide], the inhibition at 100 µM amounted to 56.2%. Consider `COCC(C)(C)c1c(F)cc(NC(=O)[C@H]2c3ccc(OC)cc3CCN2C(=O)Cc2cc(O)no2)cc1F` [(1R)-N-(3,5-difluoro-4-(1-methoxy-2-methylpropan-2-yl)phenyl)-6-methoxy-2-((3-hydroxy-1,2-oxazol-5-yl)acetyl)-1,2,3,4-tetrahydro-isoquinoline-1-carboxamide], for which the inhibition at 100 µM turned out to be 46.3%. Consider `COCC(C)(C)c1ccc(NC(=O)[C@H]2c3ccc(OC)cc3CCN2C(=O)c2cc(O)no2)cc1F` [(1R)-N-(3-fluoro-4-(1-methoxy-2-methylpropan-2-yl)phenyl)-2-((3-hydroxy-1,2-oxazol-5-yl)carbonyl)-6-methoxy-1,2,3,4-tetrahydroisoquinoline-1-carboxamide], for which the inhibition at 100 µM stood at 55%. For `COc1ccc2c(c1)CCN(C(=O)Cc1cc(O)no1)[C@H]2C(=O)Nc1cc(F)c(C(C)(C)COCC(F)F)c(F)c1` [(1R)-N-(4-(1-(2,2-difluoroethoxy)-2-methylpropan-2-yl)-3,5-difluorophenyl)-2-((3-hydroxy-1,2-oxazol-5-yl)acetyl)-6-methoxy-1,2,3,4-tetrahydro-isoquinoline-1-carboxamide], the inhibition at 100 µM was 39.3%. Take `COc1ccc2c(c1)CCN(C(=O)c1cc(O)no1)[C@H]2C(=O)Nc1cc(F)c(C(C)(C)COCC(F)F)c(F)c1` [(1R)-N-(4-(1-(2,2-difluoroethoxy)-2-methylpropan-2-yl)-3,5-difluorophenyl)-2-((3-hydroxy-1,2-oxazol-5-yl)carbonyl)-6-methoxy-1,2,3,4-tetarhydroisoquinoline-1-carboxamide]: the inhibition at 100 µM is 30.3%.

Consider `COc1ccc2c(c1)CCN(C(=O)Cc1cc(O)no1)[C@H]2C(=O)Nc1cc(F)c(C(C)(C)COCC2CC2)c(F)c1` [(1R)-N-(4-(1-(cyclopropyl-methoxy)-2-methylpropan-2-yl)-3,5-difluorophenyl)-2-((3-hydroxy-1,2-oxazol-5-yl)acetyl)-6-methoxy-1,2,3,4-tetrahydro-isoquinoline-1-carboxamide], for which the inhibition at 100 µM amounted to 61.7%. `CCOCC(C)(C)c1c(F)cc(NC(=O)[C@H]2c3ccc(OC)cc3CCN2C(=O)Cc2cc(O)no2)cc1F` [(1R)-N-(4-(1-ethoxy-2-methylpropan-2-yl)-3,5-difluorophenyl)-2-((3-hydroxy-1,2-oxazol-5-yl)acetyl)-6-methoxy-1,2,3,4-tetrahydro-isoquinoline-1-carboxamide]: the inhibition at 100 µM was 54.9%.

Regarding `CCOCC(C)(C)c1c(F)cc(NC(=O)[C@H]2c3ccc(OC)cc3CCN2C(=O)c2cc(O)no2)cc1F` [(1R)-N-(4-(1-ethoxy-2-methylpropan-2-yl)-3,5-difluorophenyl)-2-((3-hydroxy-1,2-oxazol-5-yl)carbonyl)-6-methoxy-1,2,3,4-tetrahydro-isoquinoline-1-carboxamide], the inhibition at 100 µM was determined as 56.1%. Take `COc1ccc2c(c1)CCN(C(=O)Cc1cc(O)no1)[C@H]2C(=O)Nc1cc(F)c(C(C)(C)C)c(F)c1` [(1R)-N-(4-tert-butyl-3,5-difluorophenyl)-2-((3-hydroxy-1,2-oxazol-5-yl)acetyl)-6-methoxy-1,2,3,4-tetrahydroisoquinoline-1-carboxamide]: the inhibition at 100 µM is -10.9%. In the case of `COc1ccc2c(c1)CCN(C(=O)Cc1cc(O)no1)[C@H]2C(=O)Nc1ccc(C(C)(C)C)c(F)c1` [(1R)-N-(4-tert-butyl-3-fluorophenyl)-2-((3-hydroxy-1,2-oxazol-5-yl)acetyl)-6-methoxy-1,2,3,4-tetrahydroisoquinoline-1-carboxamide], the inhibition at 100 µM was found to be 23.6%. Consider `COCc1ccc2c(c1)CCN(C(=O)Cc1cc(O)no1)[C@H]2C(=O)Nc1ccc(C(C)(C)C)c(F)c1` [(1R)-N-(4-tert-butyl-3-fluorophenyl)-2-((3-hydroxy-1,2-oxazol-5-yl)acetyl)-6-methoxymethyl-1,2,3,4-tetrahydroisoquinoline-1-carboxamide], for which the inhibition at 100 µM was found to be 60.8%. In the case of `COCc1ccc2c(c1)CCN(C(=O)Cc1cc(O)no1)[C@H]2C(=O)Nc1cc(F)c2c(c1)CCC2(C)C` [(1R)-N-(7-fluoro-1,1-dimethyl-2,3-dihydro-1H-inden-5-yl)-2-((3-hydroxy-1,2-oxazol-5-yl)acetyl)-6-(methoxymethyl)-1,2,3,4-tetrahydroisoquinoline-1-carboxamide], the inhibition at 100 µM is 50.5%.

In the case of `COc1ccc2c(c1)CCN(C(=O)Cc1cc(O)no1)[C@H]2C(=O)Nc1cc(F)c2c(c1)CCC2(C)C` [(1R)-N-(7-fluoro-1,1-dimethyl-2,3-dihydro-1H-inden-5-yl)-2-((3-hydroxy-1,2-oxazol-5-yl)acetyl)-6-methoxy-1,2,3,4-tetrahydroisoquinoline-1-carboxamide], the inhibition at 100 µM is 33.9%. On to `COCc1ccc2c(c1)CCN(C(=O)c1cc(O)no1)[C@H]2C(=O)Nc1cc(F)c2c(c1)CCC2(C)C` [(1R)-N-(7-fluoro-1,1-dimethyl-2,3-dihydro-1H-inden-5-yl)-2-((3-hydroxy-1,2-oxazol-5-yl)carbonyl)-6-(methoxymethyl)-1,2,3,4-tetrahydroisoquinoline-1-carboxamide], for which the inhibition at 100 µM was determined as 59.1%.

The same experiment, now with this note: Homo sapiens, 24 h, 100 uM solution in 1% DMSO/OD applied topically to human skin; media collected 24 hours after Th17 activation.
In the case of `COCc1ccc2c(c1)CCN(C(=O)CCCC(=O)O)[C@H]2C(=O)Nc1ccc([Si](C)(C)C)c(F)c1` [5-((1R)-1-((3-fluoro-4-(trimethylsilyl)phenyl)carbamoyl)-6-(methoxymethyl)-3,4-dihydroisoquinolin-2(1H)-yl)-5-oxopentanoic acid], the inhibition at 100 µM stood at 51.1%.

For `COc1ccc2c(n1)CCN(C(=O)CCCC(=O)O)[C@H]2C(=O)Nc1ccc([Si](C)(C)C)c(F)c1` [5-((5R)-5-((3-fluoro-4-(trimethylsilyl)phenyl)carbamoyl)-2-methoxy-7,8-dihydro-1,6-naphthyridin-6(5H)-yl)-5-oxopentanoic acid], the inhibition at 100 µM was 51.5%. As for `CC[Si](C)(C)c1c(F)cc(NC(=O)[C@H]2c3ccc(OC)nc3CCN2C(=O)CCCC(=O)O)cc1F` [5-((5R)-5-((4-(ethyl(dimethyl)silyl)-3,5-difluorophenyl)carbamoyl)-2-methoxy-7,8-dihydro-1,6-naphthyridin-6(5H)-yl)-5-oxopentanoic acid], the inhibition at 100 µM is 41.9%. `COCc1ccc([C@@H](NC(=O)CCCC(=O)O)C(=O)Nc2cc(F)c([Si](C)(C)C)c(F)c2)cc1` [5-(((1R)-2-((3,5-difluoro-4-(trimethylsilyl)phenyl)amino)-1-(4-(methoxymethyl)phenyl)-2-oxoethyl)amino)-5-oxopentanoic acid]: the inhibition at 100 µM was determined as 26.7%. As for `COc1ccc2c(c1)CCN(C(=O)Cc1cc(O)no1)[C@H]2C(=O)Nc1cc(F)c([Si](C)(C)C)c(F)c1` [(1R)-N-(3,5-difluoro-4-(trimethylsilyl)phenyl)-2-((3-hydroxy-1,2-oxazol-5-yl)acetyl)-6-methoxy-1,2,3,4-tetrahydroisoquinoline-1-carboxamide], the inhibition at 100 µM is 49.2%. On the same count and under the same terms, the figure for `COc1ccc2c(c1)CCN(C(=O)Cc1cc(O)no1)[C@H]2C(=O)Nc1ccc([Si](C)(C)C)c(C#N)c1` [(1R)-N-(3-cyano-4-(trimethylsilyl)phenyl)-2-((3-hydroxy-1,2-oxazol-5-yl)acetyl)-6-methoxy-1,2,3,4-tetrahydroisoquinoline-1-carboxamide] is 42.8%. As to `COCc1ccc2c(c1)CCN(C(=O)Cc1cc(O)no1)[C@H]2C(=O)Nc1ccc([Si](C)(C)C)c(F)c1` [(1R)-N-(3-fluoro-4-(trimethylsilyl)phenyl)-2-((3-hydroxy-1,2-oxazol-5-yl)acetyl)-6-(methoxymethyl)-1,2,3,4-tetrahydroisoquinoline-1-carboxamide], the inhibition at 100 µM came to 69.9%.

Regarding `COc1ccc2c(c1)CCN(C(=O)Cc1cc(O)no1)[C@H]2C(=O)Nc1ccc([Si](C)(C)C)c(F)c1` [(1R)-N-(3-fluoro-4-(trimethylsilyl)phenyl)-2-((3-hydroxy-1,2-oxazol-5-yl)acetyl)-6-methoxy-1,2,3,4-tetrahydroisoquinoline-1-carboxamide], the inhibition at 100 µM was determined as 31.2%. As for `COCc1ccc2c(c1)CCN(C(=O)c1cc(O)no1)[C@H]2C(=O)Nc1ccc([Si](C)(C)C)c(F)c1` [(1R)-N-(3-fluoro-4-(trimethylsilyl)phenyl)-2-((3-hydroxy-1,2-oxazol-5-yl)carbonyl)-6-methoxymethyl-1,2,3,4-tetrahydroisoquinoline-1-carboxamide], the inhibition at 100 µM amounted to 62.2%.
